Here are results for eleven molecules from PubChem BioAssay (NCI).

Test systems include HOP-62 NSCLC; K-562 leukemia; KM12 colon; RPMI-8226 leukemia; SK-MEL-5 melanoma; SR leukemia; SW-620 colon; T-47D breast; TK-10 renal; CAKI-1 renal.
Assay in all cases: growth of human tumour cells (NCI), 48 h

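Grown in 96-well plates, cells were treated for 48 hours with each compound at five concentrations. Insufficient inhibition: endpoint recorded as highest concentration tested. Abbreviation: GI50, concentration required for 50% inhibition of growth. At the TGI there is no net growth.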

For `COC(NC(=O)Nc1ccccc1C)(C(F)(F)F)C(F)(F)F`, the TGI in the assay with HOP-62 NSCLC, in the assay with K-562 leukemia, in the assay on KM12 colon, in the assay on RPMI-8226 leukemia, in the assay on SK-MEL-5 melanoma and with SR leukemia was greater than 100 µM in each case. The TGI in the assay with SW-620 colon, with T-47D breast and in the assay with TK-10 renal was greater than 100 µM throughout.
Turning to `COc1ccccc1NC(=O)CC(=O)NN`, the TGI in the assay on CAKI-1 renal, in the assay on HOP-62 NSCLC, in the assay on K-562 leukemia, with KM12 colon, in the assay with RPMI-8226 leukemia and in the assay on SK-MEL-5 melanoma was greater than 100 µM in each case. Besides, the TGI in the assay with SR leukemia, in the assay with SW-620 colon, in the assay on T-47D breast and in the assay on TK-10 renal was greater than 100 µM each time.
Regarding `O=C(OCc1ccccc1)N1CCNCCNCCN(C(=O)OCc2ccccc2)CCNCC1`, the TGI is 73.8 µM in the assay on CAKI-1 renal; greater than 100 µM in the assay with HOP-62 NSCLC; 29.8 µM in the assay with K-562 leukemia; 70 µM with KM12 colon; 50.8 µM in the assay with RPMI-8226 leukemia; 27.1 µM in the assay with SK-MEL-5 melanoma. Besides, the TGI was 34.2 µM in the assay with SR leukemia, 32.8 µM in the assay with SW-620 colon, 41 µM in the assay on T-47D breast and 67.2 µM with TK-10 renal.
Consider `Clc1ccc(C2=CCN3CC=C(c4ccc(Cl)cc4)C23)cc1`, for which the TGI with CAKI-1 renal amounted to 27.4 µM; with HOP-62 NSCLC, 26.7 µM; in the assay with K-562 leukemia, 45.2 µM; in the assay with KM12 colon, 19.2 µM; in the assay on RPMI-8226 leukemia it was 18.5 µM; with SK-MEL-5 melanoma, 13.5 µM. The TGI in the assay with SR leukemia was 21.9 µM; in the assay on SW-620 colon, 26 µM; with T-47D breast it was 29.2 µM; in the assay with TK-10 renal it was 27.5 µM.
Regarding `CCOC(=O)CCC(C(=O)OCC)n1nnc2cc(Nc3c(C)[n+]([O-])c4cc(F)c(OCC)cc4[n+]3[O-])ccc21` (stereo not given), the TGI with CAKI-1 renal, in the assay on HOP-62 NSCLC, in the assay on K-562 leukemia, in the assay on KM12 colon, with RPMI-8226 leukemia and in the assay on SK-MEL-5 melanoma was greater than 100 µM in each case. Further, the TGI in the assay on SR leukemia, in the assay on SW-620 colon, in the assay on T-47D breast and in the assay with TK-10 renal was greater than 100 µM each time.
On to `O=C(c1ccc(Cl)cc1)N1CCN=C1c1cc2ccccc2c2ccccc12`, for which the TGI is 35.7 µM in the assay on CAKI-1 renal; 33.3 µM in the assay on HOP-62 NSCLC; 95.8 µM in the assay with K-562 leukemia; 30.6 µM with KM12 colon; 55.8 µM in the assay with RPMI-8226 leukemia; 27.9 µM with SK-MEL-5 melanoma. Moreover, the TGI in the assay on SR leukemia came to 59 µM; with SW-620 colon, 32.2 µM; with T-47D breast, 54.4 µM; in the assay on TK-10 renal it was 29.2 µM.
In the case of `CCCCCCCCOc1ccc(/C=C/C2=[N+](CCO)CCO2)cc1`, the TGI with CAKI-1 renal amounted to 19.7 µM; with HOP-62 NSCLC, 39.8 µM; in the assay on K-562 leukemia it was 4.87 µM; in the assay with KM12 colon, 11 µM; with RPMI-8226 leukemia it was 5.02 µM; in the assay with SK-MEL-5 melanoma, 7.04 µM. In addition, the TGI was found to be 4.66 µM in the assay with SR leukemia, 6.8 µM with SW-620 colon, 13.2 µM in the assay with T-47D breast and 17.3 µM in the assay on TK-10 renal.
Consider `CCN(CC)C(=O)CCN1CC1`, for which the TGI in the assay on CAKI-1 renal, in the assay with HOP-62 NSCLC, with K-562 leukemia, in the assay with KM12 colon, in the assay on RPMI-8226 leukemia and with SK-MEL-5 melanoma was greater than 10 µM each time. In addition, the TGI in the assay with SR leukemia, with T-47D breast and with TK-10 renal was greater than 10 µM throughout.
For `O=C(N=Nc1ccccc1Cl)NNc1ccccc1Cl`, the TGI was greater than 100 µM in the assay with CAKI-1 renal; greater than 100 µM in the assay with HOP-62 NSCLC; 73.1 µM with K-562 leukemia; 65.6 µM in the assay with RPMI-8226 leukemia; greater than 100 µM in the assay on SK-MEL-5 melanoma; greater than 100 µM with SR leukemia. Besides, the TGI in the assay with SW-620 colon, in the assay with T-47D breast and in the assay with TK-10 renal was greater than 100 µM in each case.
For the molecule `COC(=O)Cn1cnc2c(Cl)nc(Nc3ccccc3)nc21`, the TGI with HOP-62 NSCLC, in the assay on K-562 leukemia, in the assay on KM12 colon, in the assay with RPMI-8226 leukemia, in the assay on SK-MEL-5 melanoma and in the assay on SR leukemia was greater than 100 µM in each case. The TGI with SW-620 colon, in the assay on T-47D breast and in the assay on TK-10 renal was greater than 100 µM throughout.
As to `COc1ccc(C(=O)/C=C/c2cc(-c3cc(OC)c(OC)c(OC)c3)n[nH]2)cc1`, the GI50 with HOP-62 NSCLC was 1.76 µM; with KM12 colon it was 1.56 µM; in the assay with RPMI-8226 leukemia it was 0.433 µM; with SK-MEL-5 melanoma, 1.72 µM; in the assay with SR leukemia it was 0.347 µM; in the assay on T-47D breast, 2.31 µM. For the same molecule, in the assay on TK-10 renal, the GI50 is 2.22 µM. Also, the TGI is 3.77 µM with HOP-62 NSCLC; 3.06 µM in the assay with KM12 colon; 2.49 µM in the assay on RPMI-8226 leukemia; 3.24 µM in the assay on SK-MEL-5 melanoma; 23.9 µM with SR leukemia; 13 µM with T-47D breast. The molecule also registered a TGI in the assay on TK-10 renal of 5.77 µM.
